Experimental findings from patent US7304174B2, “CaSR antagonist” (Japan Tobacco Inc., priority 2003, dated 2007) are described below.

pIC50: −log10 of the molar value.

One assay has as its system PTH secretion. Description: PTH secretion action, Experimental Example 2 (serum PTH after oral administration). Type of assay: in vivo, male SD rats. Conditions: test compound administration group, 1 mg/5 ml/kg oral, rats fasted 20 hr. How it is done:
The test compound was orally administered to 5 to 9-week-old male SD rats (Charles River Japan, Inc.) fasted for 20 hr, using a solvent (0.5% methyl cellulose solution) at a dose of 1 mg/5 ml/kg. A solvent alone was orally administered to the control group at a dose of 5 ml/kg. The blood was drawn from the tail vein immediately before and, 15 min, 30 min, 60 min and 120 min after the administration of the test compound, and serum was obtained. The serum PTH concentration was measured using rat PTH ELISA kit (Amersham Biosciences).

In another assay the target is T1, human calcium receptor (Homo sapiens, UniProt P41180).
T1 construct: expressed in transfected cells; host or cells: cell strain derived from rat adrenal, co-transformed with luciferase cDNA
T1 sequence (P41180 20-1078): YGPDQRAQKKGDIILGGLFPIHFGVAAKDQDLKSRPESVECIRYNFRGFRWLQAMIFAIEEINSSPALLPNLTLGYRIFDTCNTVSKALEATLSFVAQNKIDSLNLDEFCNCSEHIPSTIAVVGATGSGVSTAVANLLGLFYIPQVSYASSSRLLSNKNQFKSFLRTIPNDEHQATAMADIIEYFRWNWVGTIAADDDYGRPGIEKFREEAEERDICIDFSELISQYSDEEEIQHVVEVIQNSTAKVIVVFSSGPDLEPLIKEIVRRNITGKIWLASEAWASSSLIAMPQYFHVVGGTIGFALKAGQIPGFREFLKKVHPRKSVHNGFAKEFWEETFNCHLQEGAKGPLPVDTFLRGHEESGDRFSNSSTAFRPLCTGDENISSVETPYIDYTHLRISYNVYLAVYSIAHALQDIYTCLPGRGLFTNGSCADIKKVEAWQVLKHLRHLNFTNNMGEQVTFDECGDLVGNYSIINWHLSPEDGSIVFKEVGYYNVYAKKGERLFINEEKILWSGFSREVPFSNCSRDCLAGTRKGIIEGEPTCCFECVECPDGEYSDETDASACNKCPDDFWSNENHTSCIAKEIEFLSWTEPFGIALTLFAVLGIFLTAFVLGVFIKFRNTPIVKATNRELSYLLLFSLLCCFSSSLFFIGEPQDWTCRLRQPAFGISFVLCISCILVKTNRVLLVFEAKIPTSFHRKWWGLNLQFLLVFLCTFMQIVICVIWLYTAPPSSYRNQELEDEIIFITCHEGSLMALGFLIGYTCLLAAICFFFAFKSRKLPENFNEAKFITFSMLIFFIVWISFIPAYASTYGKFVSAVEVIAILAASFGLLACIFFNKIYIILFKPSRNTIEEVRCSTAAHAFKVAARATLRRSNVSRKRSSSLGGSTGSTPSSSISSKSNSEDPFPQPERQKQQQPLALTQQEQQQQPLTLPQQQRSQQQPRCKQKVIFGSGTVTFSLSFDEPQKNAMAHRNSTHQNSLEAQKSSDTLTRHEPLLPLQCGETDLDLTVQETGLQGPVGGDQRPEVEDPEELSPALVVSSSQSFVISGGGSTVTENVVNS
The experiment in a line: Evaluation of antagonistic action on calcium receptor using reporter gene (luciferase). The format is cell-based. Conditions: transformed rat adrenal derived cells, 5 mM calcium chloride, culture 4 hrs, luciferase activity; read-out: Reporter gene assay (IC50, concentration showing 50% inhibitory rate). The procedure, abridged:
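Rat adrenal-derived cells transfected with luciferase and human calcium receptor cDNA, in F12 with 0.5% dialyzed horse serum and 0.25% dialyzed fetal bovine serum. Luciferase luminescence gave % inhibition vs control and blank; IC50 at 50% inhibition.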
Background: A reporter such as luciferase makes a cellular process visible.

Regarding `Cc1cc(-c2ccccc2[C@@H](C)OC[C@H](O)CNC(C)(C)Cc2ccc(Cl)c(F)c2)ccc1C(=O)O` [Example 1-2, 2′-[(1R)-[(2R)-3-[[1-(4-Chloro-3-fluorophenyl)-2-methylpropan-2-yl]amino]-2-hydroxypropoxy]ethyl]-3-methylbiphenyl-4-carboxylic acid], in the assay on PTH secretion, the “Serum PTH concentration 15 min later” value came out at 28.5 ± 5.3 pg/mL, the “Serum PTH concentration 30 min later” value worked out at 27.1 ± 2.3 pg/mL, the “Serum PTH concentration 60 min later” value was 10.5 ± 1.3 pg/mL and the “Serum PTH concentration 120 min later” value amounted to 12.4 ± 1.6 pg/mL. Moreover, at human calcium receptor, the pIC50 was 7.89.
Taken in the same sequence, the figures for `Cc1ccc(CC(C)(C)NC[C@@H](O)CO[C@H](C)c2ccccc2-c2ccc(C(=O)O)c(C)c2)cc1Cl` [Example 1-3, 2′-[1-[(2R)-3-[[1-(3-chloro-4-methylphenyl)-2-methylpropan-2-yl]amino]-2-hydroxypropoxy]ethyl]-3-methylbiphenyl-4-carboxylic acid] were 23.8 ± 1.6 pg/mL, 25.1 ± 3.9 pg/mL, 9.5 ± 0.5 pg/mL, 11.6 ± 0.9 pg/mL and 8.00.
Taken in the same sequence, the figures for `Cc1cc(-c2ccccc2[C@@H](C)OC[C@H](O)CNC(C)(C)Cc2ccc(Cl)cc2F)ccc1C(=O)O` [Example 1-6, 2′-[1-[(2R)-3-[[1-(4-chloro-2-fluorophenyl)-2-methylpropan-2-yl]amino]-2-hydroxypropoxy]ethyl]-3-methylbiphenyl-4-carboxylic acid] were 28.9 ± 6.9 pg/mL, 19.2 ± 3.1 pg/mL, 10.0 ± 1.7 pg/mL, 8.3 ± 0.6 pg/mL and 7.70.
Regarding `C[C@@H](OC[C@H](O)CNC(C)(C)Cc1ccc2ccccc2c1)c1ccccc1OCc1ccc(C(=O)O)cc1` [Example 2-22, 4-[[2-[1-[(2R)-3-[[1-(naphthalen-2-yl)-2-methylpropan-2-yl]amino]-2-hydroxypropoxy]ethyl]phenoxy]methyl]benzoic acid], at human calcium receptor, the pIC50 was 7.77.
Same read-out and setting: in the case of `Cc1ccc(CC(C)(C)NC[C@@H](O)CO[C@H](C)c2ccccc2OCc2cccc(C(=O)O)c2)cc1F` [Example 2-23, 3-[[2-[1-[(2R)-3-[[1-(3-fluoro-4-methylphenyl)-2-methylpropan-2-yl]amino]-2-hydroxypropoxy]ethyl]phenoxy]methyl]benzoic acid] it was 7.57; in that of `Cc1ccc(CC(C)(C)NC[C@@H](O)CO[C@H](C)c2ccccc2OCc2ccc(C(=O)O)cc2)cc1F` [Example 2-24, 4-[[2-[1-[(2R)-3-[[1-(3-fluoro-4-methylphenyl)-2-methylpropan-2-yl]amino]-2-hydroxypropoxy]ethyl]phenoxy]methyl]benzoic acid], 7.24; in that of `Cc1ccc(CC(C)(C)NC[C@@H](O)CO[C@H](C)c2ccccc2OCc2ccc(C(=O)O)cc2F)cc1F` [Example 2-25, 3-fluoro-4-[[2-[1-[(2R)-3-[[1-(3-fluoro-4-methylphenyl)-2-methylpropan-2-yl]amino]-2-hydroxypropoxy]ethyl]phenoxy]methyl]benzoic acid], 7.19.
The same measure, in the same setting: then `Cc1ccc(CC(C)(C)NC[C@@H](O)CO[C@H](C)c2ccccc2OCc2ccc(C(=O)O)cc2C)cc1F` [Example 2-26, 4-[[2-[1-[(2R)-3-[[1-(3-fluoro-4-methylphenyl)-2-methylpropan-2-yl]amino]-2-hydroxypropoxy]ethyl]phenoxy]methyl]-3-methylbenzoic acid], with 7.62; and `COc1cc(C(=O)O)cc(OC)c1Oc1ccccc1C(C)OC[C@H](O)CNC(C)(C)Cc1ccc(C)c(F)c1` (stereo partly drawn) [Example 2-27, 4-[2-[1-[(2R)-3-[[1-(3-fluoro-4-methylphenyl)-2-methylpropan-2-yl]amino]-2-hydroxypropoxy]ethyl]phenoxy]-3,5-dimethoxybenzoic acid], with 7.57; and `Cc1ccc(CC(C)(C)NC[C@@H](O)CO[C@H](C)c2ccccc2Oc2ccc(C(=O)O)cc2[N+](=O)[O-])cc1F` [Example 2-28, 4-[2-[1-[(2R)-3-[[1-(3-fluoro-4-methylphenyl)-2-methylpropan-2-yl]amino]-2-hydroxypropoxy]ethyl]phenoxy]-3-nitrobenzoic acid], with 8.52.
On the same count and under the same terms, then `Cc1ccc(CC(C)(C)NC[C@@H](O)CO[C@H](C)c2ccccc2Oc2ccc(C(=O)O)c([N+](=O)[O-])c2)cc1F` [Example 2-29, 4-[2-[1-[(2R)-3-[[1-(3-fluoro-4-methylphenyl)-2-methylpropan-2-yl]amino]-2-hydroxypropoxy]ethyl]phenoxy]-2-nitrobenzoic acid], with 7.96; and `Cc1ccc(CC(C)(C)NC[C@@H](O)CO[C@H](C)c2ccccc2Oc2ccc(C(=O)O)cc2Cl)cc1F` [Example 2-30, 4-[2-[1-[(2R)-3-[[1-(3-fluoro-4-methylphenyl)-2-methylpropan-2-yl]amino]-2-hydroxypropoxy]ethyl]phenoxy]-3-chlorobenzoic acid], with 8.52.
Take `Cc1ccc(CC(C)(C)NC[C@@H](O)CO[C@H](C)c2ccccc2Oc2ccc(C(=O)O)c(Cl)c2)cc1F` [Example 2-31, 4-[2-[1-[(2R)-3-[[1-(3-fluoro-4-methylphenyl)-2-methylpropan-2-yl]amino]-2-hydroxypropoxy]ethyl]phenoxy]-2-chlorobenzoic acid]: on human calcium receptor, the pIC50 is 7.80.
As to `Cc1ccc(CC(C)(C)NC[C@@H](O)CO[C@H](C)c2ccccc2Oc2ccc(C(=O)O)c(C(F)(F)F)c2)cc1F` [Example 2-32, 4-[2-[1-[(2R)-3-[[1-(3-fluoro-4-methylphenyl)-2-methylpropan-2-yl]amino]-2-hydroxypropoxy]ethyl]phenoxy]-2-trifluoromethylbenzoic acid], the pIC50 at human calcium receptor is 7.85.
Same read-out and setting: then `Cc1ccc(CC(C)(C)NC[C@@H](O)CO[C@H](C)c2ccccc2Oc2ccc(C(=O)O)cc2C(F)(F)F)cc1F` [Example 2-33, 4-[2-[1-[(2R)-3-[[1-(3-fluoro-4-methylphenyl)-2-methylpropan-2-yl]amino]-2-hydroxypropoxy]ethyl]phenoxy]-3-trifluoromethylbenzoic acid], with 8.70; and `Cc1ccc(CC(C)(C)NC[C@@H](O)CO[C@H](C)c2ccccc2Oc2ccc(C(=O)O)cc2F)cc1F` [Example 2-34, 4-[2-[1-[(2R)-3-[[1-(3-fluoro-4-methylphenyl)-2-methylpropan-2-yl]amino]-2-hydroxypropoxy]ethyl]phenoxy]-3-fluorobenzoic acid], with 8.22.
As for `C[C@@H](OC[C@H](O)CNC(C)(C)Cc1ccc(Cl)c(F)c1)c1ccccc1Oc1ccc(C(=O)O)cc1` [Example 2-35, 4-[2-[1-[(2R)-3-[[1-(4-chloro-3-fluorophenyl)-2-methylpropan-2-yl]amino]-2-hydroxypropoxy]ethyl]phenoxy]benzoic acid], on human calcium receptor, the pIC50 was 7.96.
On to `Cc1cc(C(=O)O)ccc1Oc1ccccc1C(C)OC[C@H](O)CNC(C)(C)Cc1ccc(Cl)c(F)c1` (stereo partly drawn) [Example 2-36, 4-[2-[1-[(2R)-3-[[1-(4-chloro-3-fluorophenyl)-2-methylpropan-2-yl]amino]-2-hydroxypropoxy]ethyl]phenoxy]-5-methylbenzoic acid], for which, on human calcium receptor, the pIC50 was 7.89.
